target: T1, RIPK2 enzyme (Homo sapiens, UniProt O43353); experiment: RIPK2 inhibition (ADP-Glo Kinase Assay); assay type: biochemical; conditions: RIPK2 5 nM, ATP 150 μM, MBP substrate, read-out: RIPK2 IC50
T1 construct: purchased Carna 09-128
Experimental: RIPK2 inhibition was measured as follows:
The V9102 ADP-Glo Kinase Assay (including ultrapure ATP, 10 mM) was purchased from Promega. Native swine MBP was used as the substrate for the reaction and was purchased from SignalChem Biotech (catalogue number M42-51N). Assay buffer used for the assay consisted of the following components: MgCl2 (final concentration of 10 mM), Brij-35 (0.01%), DTT (final concentration of 2 mM), BSA (0.05%), EGTA (final concentration of 1 mM), and HEPE (pH 7.5 at final concentration of 50 mM).
Method: In a 384 well plate, 10 nL of test compound was dispensed using Echo550 and mixed with RIPK2 enzyme (final concentration of 5 nM) in assay buffer for 30 minutes at room temperature. […] Then ADP-Glo reagent was added and incubated for 60 min at room temperature. Last, Kinase Detection Reagent was added to the mixture and incubated for 60 min. The resulting luminescent signal was measured with an Envision reader to determine the amount of ADP produced. All plates contained vehicle controls (10 nL DMSO only) as a reference for the high control (0% kinase inhibition), and wells with no RIPK2 enzyme as reference for low control (100% kinase inhibition). Data were analyzed to determine the percent inhibition of ADP production in the presence of test compound using both low and high controls.

T1 sequence (O43353 1-299 limits assumed): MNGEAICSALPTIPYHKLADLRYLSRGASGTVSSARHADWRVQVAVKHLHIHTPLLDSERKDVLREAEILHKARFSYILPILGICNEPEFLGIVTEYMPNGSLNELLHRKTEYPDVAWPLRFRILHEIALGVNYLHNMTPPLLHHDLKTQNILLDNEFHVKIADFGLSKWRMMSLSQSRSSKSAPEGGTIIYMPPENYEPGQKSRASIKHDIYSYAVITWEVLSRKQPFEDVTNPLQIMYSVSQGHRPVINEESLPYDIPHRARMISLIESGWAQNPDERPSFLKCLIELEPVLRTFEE

Structure (SMILES) | IC50
COc1ccc2nccc(Oc3ccc(CC(=O)Nc4cnn(C(C)(C)C)c4)c(F)c3)c2c1 [Compound 1, N-(1-(tert-butyl)-1H-pyrazol-4-yl)-2-(2-fluoro-4-((6-methoxy-quinolin-4-yl)oxy)phenyl) acetamide] | 5.6 nM
COc1cc2ncnc(Oc3ccc(CC(=O)Nc4cnn(C(C)(C)C)c4)c(F)c3)c2cc1S(=O)(=O)C(C)(C)C [Compound 2, N-(1-(tert-butyl)-1H-pyrazol-4-yl)-2-(4-((6-(tert-butylsulfonyl)-7-methoxyquinazolin-4-yl)oxy)-2-fluorophenyl)acetamide] | < 2.5 nM
COc1cc2nccc(Oc3ccc(CC(=O)Nc4cnn(C(C)(C)C)c4)c(F)c3)c2cc1S(=O)(=O)C(C)(C)C [Compound 3, N-(1-(tert-butyl)-1H-pyrazol-4-yl)-2-(4-((6-(tert-butylsulfonyl)-7-methoxyquinolin-4-yl)oxy)-2-fluorophenyl)acetamide] | < 2.5 nM
CC(C)(C)n1cc(NC(=O)Cc2ncc(Oc3ccnc4ccc(F)cc34)cn2)cn1 [Compound 4] | 61.9 nM
CC(C)(C)n1cc(NC(=O)Cc2ncc(Oc3ncnc4ccc(F)cc34)cc2F)cn1 [Compound 5, N-(1-(tert-butyl)-1H-pyrazol-4-yl)-2-(3-fluoro-5-((6-fluoroquinazolin-4-yl)oxy)pyridin-2-yl)acetamide] | 99.7 nM
COc1ccc2nccc(Oc3cnc(CC(=O)Nc4cnn(C(C)(C)C)c4)c(F)c3)c2c1 [Compound 6, N-(1-(tert-butyl)-1H-pyrazol-4-yl)-2-(3-fluoro-5-((6-methoxyquinolin-4-yl)oxy)pyridin-2-yl)acetamide] | 9 nM
CC(C)(C)n1cc(NC(=O)Cc2ncc(Oc3ncnc4ccc(Cl)cc34)cc2F)cn1 [Compound 7, N-(1-(tert-butyl)-1H-pyrazol-4-yl)-2-(5-((6-chloroquinazolin-4-yl)oxy)-3-fluoro-pyridin-2-yl)acetamide] | 24 nM
COc1ccc2ncnc(Oc3cnc(CC(=O)Nc4cnn(C(C)(C)C)c4)c(F)c3)c2c1 [Compound 9, N-(1-(tert-butyl)-1H-pyrazol-4-yl)-2-(3-fluoro-5-((6-methoxyquinazolin-4-yl)oxy)pyridin-2-yl)acetamide] | 21.8 nM
COc1ccc2ncnc(Oc3cnc(CC(=O)Nc4cnn(C(C)(C)C)c4)c(Cl)c3)c2c1 [Compound 10, N-(1-(tert-butyl)-1H-pyrazol-4-yl)-2-(3-chloro-5-((6-methoxyquinazolin-4-yl)oxy)pyridin-2-yl)acetamide] | 43.5 nM
COc1ccc2ncnc(Oc3cnc(CC(=O)Nc4cc(C(C)(C)C)[nH]n4)c(F)c3)c2c1 [Compound 12, N-(5-(tert-butyl)-1H-pyrazol-3-yl)-2-(3-fluoro-5-((6-methoxyquinazolin-4-yl)oxy)pyridin-2-yl)acetamide] | 11.6 nM
COc1ccc2nccc(Oc3cnc(CC(=O)Nc4cc(C(C)(C)C)[nH]n4)c(F)c3)c2c1 [Compound 13, N-(5-(tert-butyl)-1H-pyrazol-3-yl)-2-(3-fluoro-5-((6-methoxyquinolin-4-yl)oxy)pyridin-2-yl)acetamide] | 3.5 nM
CC(C)(C)n1cc(NC(=O)Cc2ccc(Oc3ncnc4ccc(N5CCOCC5)cc34)cc2F)cn1 [Compound 14, N-(1-(tert-butyl)-1H-pyrazol-4-yl)-2-(2-fluoro-4-((6-morpholinoquinazolin-4-yl)oxy)phenyl)acetamide] | 23.7 nM
COc1ccc2ncnc(Oc3ccc(CC(=O)Nc4cc(C(C)(C)CO)[nH]n4)c(F)c3)c2c1 [Compound 15, 2-(2-fluoro-4-((6-methoxy-quinazolin-4-yl)oxy)phenyl)-N-(5-(1-hydroxy-2-methylpropan-2-yl)-1H-pyrazol-3-yl)acetamide] | 34.9 nM
CC(C)(C)n1cc(NC(=O)Cc2ccc(Oc3ncnc4ccc(OCCO)cc34)cc2F)cn1 [Compound 16, N-(1-(tert-butyl)-1H-pyrazol-4-yl)-2-(2-fluoro-4-((6-(2-hydroxyethoxy)quinazolin-4-yl)oxy)phenyl)acetamide] | 9.3 nM
CC(C)(C)n1cc(NC(=O)Cc2ccc(Oc3ncnc4ccc(OCCN5CCCC5)cc34)cc2F)cn1 [Compound 17, N-(1-(tert-butyl)-1H-pyrazol-4-yl)-2-(2-fluoro-4-((6-(2-(pyrrolidin-1-yl)ethoxy)quinazolin-4-yl)oxy)phenyl) acetamide] | 27.4 nM
CN1CC(Oc2ccc3ncnc(Oc4ccc(CC(=O)Nc5cnn(C(C)(C)C)c5)c(F)c4)c3c2)C1 [Compound 18, N-(1-(tert-butyl)-1H-pyrazol-4-yl)-2-(2-fluoro-4-((6-((1-methyl-azetidin-3-yl)oxy)quinazolin-4-yl)oxy)phenyl) acetamide] | 7.9 nM
CN1CCC(Oc2ccc3ncnc(Oc4ccc(CC(=O)Nc5cnn(C(C)(C)C)c5)c(F)c4)c3c2)CC1 [Compound 19, N-(1-(tert-butyl)-1H-pyrazol-4-yl)-2-(2-fluoro-4-((6-((1-methyl-piperidin-4-yl)oxy)quinazolin-4-yl)oxy)phenyl) acetamide] | 4.2 nM
CC(C)(C)c1ccnc(NC(=O)Cc2ccc(Oc3ncnc4ccc(F)cc34)cc2F)c1 [Compound 21, N-(4-(tert-butyl)pyridin-2-yl)-2-(2-fluoro-4-((6-fluoroquinazolin-4-yl)oxy)phenyl) acetamide] | 36.6 nM
CC(C)c1ccnc(NC(=O)Cc2ccc(Oc3ncnc4ccc(F)cc34)cc2F)c1 [Compound 22, 2-(2-fluoro-4-((6-fluoroquinazolin-4-yl)oxy)phenyl)-N-(4-isopropylpyridin-2-yl)acetamide] | 23.9 nM

Second part, the molecule after the results:

IC50 | Structure (SMILES)
< 2.5 nM | Cc1c(Oc2ccnc3ccc(C(=O)N4CCC(N)C4)cc23)ccc(CC(=O)Nc2cnn(C(C)(C)C)c2)c1F (single isomer, unassigned) [Compound 354, 2-(4-((6-(3-amino-pyrrolidine-1-carbonyl)quinolin-4-yl)oxy)-2-fluoro-3-methyl-phenyl)-N-(1-(tert-butyl)-1H-pyrazol-4-yl)acetamide]
< 2.5 nM | Cc1cc(CC(=O)Nc2cnn(C(C)(C)C)c2)c(F)cc1Oc1ccnc2ccc(C(=O)N3CCC(O)C3)cc12 (single isomer, unassigned) [Compound 375, N-(1-(tert-butyl)-1H-pyrazol-4-yl)-2-(2-fluoro-4-((6-(3-hydroxy-pyrrolidine-1-carbonyl)quinolin-4-yl)oxy)-5-methyl-phenyl) acetamide]
< 2.5 nM | Cc1cc(CC(=O)Nc2cnn(C(C)(C)C)c2)c(F)cc1Oc1ccnc2ccc(C(=O)N3CCC(O)C3)cc12 (single isomer, unassigned) [Compound 376, N-(1-(tert-butyl)-1H-pyrazol-4-yl)-2-(2-fluoro-4-((6-(3-hydroxy-pyrrolidine-1-carbonyl)quinolin-4-yl)oxy)-5-methylphenyl) acetamide]
< 2.5 nM | Cc1cc(CC(=O)Nc2cnn(C(C)(C)C)c2)c(F)cc1Oc1ccnc2ccc(C(=O)NC3CC(C#N)C3)cc12 (single isomer, unassigned) [Compound 395, 4-(4-(2-((1-(tert-butyl)-1H-pyrazol-4-yl)amino)-2-oxoethyl)-5-fluoro-2-methyl-phenoxy)-N-(-3-cyano-cyclobutyl) quinoline-6-carboxamide]
< 2.5 nM | Cc1cc(CC(=O)Nc2cnn(C(C)(C)C)c2)c(F)cc1Oc1ccnc2ccc(C(=O)NC3CC(C#N)C3)cc12 (single isomer, unassigned) [Compound 396, 4-(4-(2-((1-(tert-butyl)-1H-pyrazol-4-yl)amino)-2-oxoethyl)-5-fluoro-2-methyl-phenoxy)-N-(-3-cyano-cyclobutyl) quinoline-6-carboxamide]
< 2.5 nM | Cc1c(Oc2ccnc3ccc(C(=O)NC4CC(C#N)C4)cc23)ccc(CC(=O)Nc2cnn(C(C)(C)C)c2)c1F (single isomer, unassigned) [Compound 403, 4-(4-(2-((1-(tert-butyl)-1H-pyrazol-4-yl)amino)-2-oxoethyl)-3-fluoro-2-methyl-phenoxy)-N-(-3-cyano-cyclobutyl) quinoline-6-carboxamide]
< 2.5 nM | Cc1c(Oc2ccnc3ccc(C(=O)NC4CC(C#N)C4)cc23)ccc(CC(=O)Nc2cnn(C(C)(C)C)c2)c1F (single isomer, unassigned) [Compound 404, 4-(4-(2-((1-(tert-butyl)-1H-pyrazol-4-yl)amino)-2-oxoethyl)-3-fluoro-2-methyl-phenoxy)-N-(-3-cyano-cyclobutyl) quinoline-6-carboxamide]
14.4 nM | COc1ccc2ncnc(Oc3ccc(CC(=O)Nc4noc(C(C)(C)C)n4)c(F)c3)c2c1 [Compound 23, N-(5-(tert-butyl)-1,2,4-oxadiazol-3-yl)-2-(2-fluoro-4-((6-methoxy-quinazolin-4-yl)oxy)phenyl) acetamide]
7.4 nM | CC(C)(C)n1cc(NC(=O)Cc2ccc(Oc3ncnc4ccc(C(N)=O)cc34)cc2F)cn1 [Compound 24, 4-(4-(2-((1-(tert-butyl)-1H-pyrazol-4-yl)amino)-2-oxoethyl)-3-fluoro-phenoxy) quinazoline-6-carboxamide]
4.3 nM | CNC(=O)c1ccc2ncnc(Oc3ccc(CC(=O)Nc4cnn(C(C)(C)C)c4)c(F)c3)c2c1 [Compound 25, 4-(4-(2-((1-(tert-butyl)-1H-pyrazol-4-yl)amino)-2-oxoethyl)-3-fluoro-phenoxy)-N-methyl-quinazoline-6-carboxamide]

From US12624018B1, “Inhibitors of RIPK2 and medical uses thereof” (Odyssey Therapeutics, Inc., priority 2022, dated 2026)
